Measurements published in patent US20100285145A1, “GPR 119 MODULATORS” (PFIZER INC, priority 2009, published 2010).

What was measured:
male Wistar rats [1] = test: Intraperitoneal glucose tolerance test (IPGTT); type: in vivo; settings: rat, 20 mg/kg in 0.5% methylcellulose, IP glucose administered 30 minutes post dose
male Wistar rats [2] = test: Oral glucose tolerance test (OGTT); type: in vivo; settings: rat; for Glucose 0-120 min AUC (percent vehicle response): 30 min before glucose 2 g/kg
Description: All in vivo protocols were approved by the Pfizer's Animal Welfare Committee. Naive male Wistar rats (225-250 g body weight on receipt) were obtained from Harlan Laboratories (Indianapolis, Ind.), were pair housed in hanging plastic caging on Sani-chips sawdust bedding, and fed ad libitum on Purina 5001 chow. The rats were housed under a controlled light cycle (light from 6 am to 6 pm) at controlled temperature and humidity conditions. Rats were acclimated to the facility for at least 1 week prior to study.
Example 17 was formulated in 0.5% methylcellulose. The highest dose (30 mg/kg) was formulated at 6 mg/mL for administration at 5 mL/kg, the required bulk was added to a mortar and ground with a small amount of 0.5% methylcellulose to a smooth paste with a pestle, additional 0.5% methylcellulose was added until the mixture flowed, when it was transferred to a stirred container, the mortar was rinsed several times with remaining quantity of 0.5% methylcellulose and capped to prevent evaporation. The suspension was stirred continuously overnight with a magnetic stir bar prior to study, and the lower doses were diluted from the 6 mg/mL suspension using the appropriate volume of 0.5% methylcellulose. All dosing suspensions were stirred throughout the dosing procedure.
Rats were stratified (n=8/group) to vehicle (0.5% methylcellulose) or one of three dose groups (1, 5, or 30 mg/kg) according to body weight on day-1 to ensure that each group had equal group mean body weight values. The rats were fasted overnight in clean cages overnight (˜15 hours) prior to the oral glucose tolerance test. Body weights were recorded on the morning of the study (post fasting) for dose volume calculation. Blood samples were collected from all rats prior to dosing with vehicle or test compound via oral gavage (5 mL/kg). Thirty minutes later rats were bled and immediately dose with an oral dose of glucose (2 g/kg). The rats were re-bled at 15, 30, 60 and 120 minutes post-glucose load. Blood samples (˜250 μL/time point) were collected into EDTA tubes with aprotinin/DPPIVi (0.6 TIU/2 μL per mL whole blood). Blood tubes were inverted several times immediately following collection and placed on ice, then spun at 14,000 rpm in a refrigerated centrifuge for 5 minutes. Plasma samples were analyzed for glucose levels using a Roche 912 clinical chemistry analyzer, plasma insulin concentrations were determined using the Alpco Ultra-Sensitive Insulin Rat ELISA, and total amide GLP-1 concentrations were determined using MSD ELISA kit.
The results are presented as mean+/−SEM (standard error of the mean) unless otherwise stated. Statistical evaluation of the data is carried out using one-way analysis of variance (ANOVA) with appropriate post-hoc analysis between vehicle and treatment group. Differences compared to vehicle with a p>0.05 were considered statistically significant using Dunnett's T-test.

Row | Compound | Insulin AUC (0-60 min) (percent vehicle response) (male Wistar rats [1]) | Insulin 0-60 min AUC (percent vehicle response) (male Wistar rats [2]; 1 mg/kg oral) | Total Amide GLP-1 0-120 min AUC (percent vehicle response) (male Wistar rats [2]; 1 mg/kg oral) | Glucose 0-120 min AUC (percent vehicle response) (male Wistar rats [2]; 1 mg/kg oral) | Insulin 0-60 min AUC (percent vehicle response) (male Wistar rats [2]; 5 mg/kg oral) | Total Amide GLP-1 0-120 min AUC (percent vehicle response) (male Wistar rats [2]; 5 mg/kg oral) | Glucose 0-120 min AUC (percent vehicle response) (male Wistar rats [2]; 5 mg/kg oral) | Insulin 0-60 min AUC (percent vehicle response) (male Wistar rats [2]; 30 mg/kg oral) | Total Amide GLP-1 0-120 min AUC (percent vehicle response) (male Wistar rats [2]; 30 mg/kg oral) | Glucose 0-120 min AUC (percent vehicle response) (male Wistar rats [2]; 30 mg/kg oral)
1 | CC(C)OC(=O)N1CCC(Oc2cc(N3CCc4cc(S(C)(=O)=O)ccc43)ncn2)CC1 [Example 3, Isopropyl 4-({6-[5-(methylsulfonyl)-2,3-dihydro-1H-indol-1-yl]pyrimidin-4-yl}oxy)piperidine-1-carboxylate] | 104 percent vehicle response | – | – | – | – | – | – | – | – | –
2 | Cc1c(O[C@H]2CCN(C(=O)OC3(C)CC3)C[C@H]2F)ncnc1N1CCc2ncccc21 [Example 17, 1-Methylcyclopropyl (3R,4S)-4-{[6-(2,3-dihydro-1H-pyrrolo[3,2-b]pyridin-1-yl)-5-methylpyrimidin-4-yl]oxy}-3-fluoropiperidine-1-carboxylate] | – | 90 percent vehicle response | 147 percent vehicle response | 102 percent vehicle response | 142 percent vehicle response | +184 percent vehicle response | 95 percent vehicle response | 112 percent vehicle response | 150 percent vehicle response | ++90 percent vehicle response
